Patent US20230158071A1, “TUMOR COMBINED IMMUNOTHERAPY” (CRAGE medical Co., Limited, priority 2018, published 2023)

Assays:
Format in all cases: cell-based, mouse
806-mCD28z-CAR-T cells = test: CCK8 proliferation assay, olaparib on CAR-T cells
Description: (§1) As an effective inhibitor of PARP1, olaparib may inhibit PARP1 to participate in DNA damage repair process. In mouse breast cancer cell lines and mouse T cells and CART cells, different levels of PARP1 expression are detected (FIG. 2B). Therefore, CCK8 proliferation assay is required to detect the effect of olaparib on proliferation of tumor cells and CART cells.
(§2) 806-m28Z CAR-T cells in Example 1 are taken to spread in a 96-well plate with 1×10^4 cells per well and 100 μl medium. Breast cancer cells E0771-EGFRvIII and 4T1-EGFRvIII are taken to spread in a 96-well plate with 1×10^4 cells per well and 100 μl medium. Different concentrations of olaparib are taken to add to the cells to make 10 concentration gradients (i.e., the treatment concentrations of olaparib are respectively 50 μM, 20 μM, 10 μM, 5 μM, 2.5 μM, 1 μM, 0.1 μM, 0.01 μM, 0.001 μM, 0 μg/ml). After 48 hours of drug treatment for cells of different groups, 10 μl of CCK8 substrate color reagent (Dojindo) is added to each well; after incubating for 1 hour at 37° C., the absorbance at 450 nm is measured by a microplate reader, calculating the cell viability respectively.
(§3) The formula for calculating the cell viability is as follows:
(§4) Cell viability (%)=[A (adding drug)−A (blank)]/[A (without adding drug)−A (blank)]

4T1-EGFRvIII cells [1] = test: CCK8 proliferation assay, olaparib on 4T1-EGFRvIII breast cancer cells
Excerpt: Since the EGFR287-302 epitope is only exposed in EGFRvIII or tumors overexpressing EGFR, this epitope is hidden in normal tissues (Gan H K et al., Targeting of a conformationally exposed, tumor-specific epitope of EGFR as a strategy for cancer therapy. Cancer Res. 2012, 72(12):2924-2930), conventional methods in molecular biology are used to establish E0771, 4T1 mouse breast cancer cell models (E0771-EGFRvIII, 4T1-EGFRvIII) that overexpress mouse EGFR inserted with amino acid epitope at positions 287-302 of human EGFR. Subsequent research is performed to screen EGFRvIII target-positive cells by cell flow cytometry (FIG. 2A). E0771, 4T1 cells are purchased from the American Type Culture Collection (ATCC).
as §1, §2, §3, §4

4T1-EGFRvIII cells [2] = test: LDH cytotoxicity assay, CAR-T killing of olaparib-treated 4T1-EGFRvIII cells
Description: The experimental groups for incubating with cells that are positive for the antigen target comprises the following 4 groups: UTD group, 806-mCD28z-CAR-T group (or denoted as 806-28Z), olaparib pretreatment group, and olaparib combined treatment group;
the olaparib pretreatment group comprises: UTD+1 μM olaparib pretreatment group (or denoted as UTD+Olaparib 1 μM pretreatment), UTD+5 μM olaparib pretreatment group (or denoted as UTD+Olaparib 5 μM pretreatment), 806-mCD28z-CAR-T+1 μM olaparib pretreatment group (or denoted as 806-28Z+Olaparib 1 μM pretreatment). 806-mCD28z-CAR-T+5 μM olaparib pretreatment group (or denoted as 806-28Z+Olaparib 5 μM pretreatment); […]
Olaparib pretreatment group: different concentrations of olaparib (1 μM, 5 μM) are added to the medium for culturing E0771-EGFRVIII or 4T1-EGFRvIII tumor cells respectively, culturing at 37° C. for 24 h, and then the cells are treated with trypsin and resuspended in fresh medium. The untreated mouse T cells and 806-mCD28z-CAR T cells in Example 1 are respectively taken to incubate with E0771-EGFRvIII or 4T1-EGFRVIII cells pretreated with different concentrations of olaparib at a ratio of 1:3, 1:1, and 3:1; 16 hours later, the secretion of LDH in the supernatant is detected by Cytox 96 Non-Radioactive Cytotoxicity Assay, then calculating the killing toxicity of 806-mCD28z CAR T cells to tumor cells pretreated with different concentrations of olaparib. […] Cytox 96 Non-Radioactive Cytotoxicity Assay (Promaga, REF: G1782); at the same time, the secretions of cytokines Granzyme B, IFN-γ, and IL-2 in the supernatant are detected by ELISA kit (Lianke Biotech Co. Ltd. CAT: 18^.22), for specific experimental procedures, referring to instructions of MouseGranzyme B, IFN-γ, IL-2 ELISA kit from Lianke Biotech Co, Ltd. […]

[3] = system: cytokines Granzyme B, IFN-γ, and IL-2; test: ELISA of cytokines in supernatant of co-cultured E0771-EGFRvIII cells and CAR-T cells; conditions: E0771-EGFRvIII co-culture
Description: Olaparib pretreatment group: different concentrations of olaparib (1 μM, 5 μM) are added to the medium for culturing E0771-EGFRVIII or 4T1-EGFRvIII tumor cells respectively, culturing at 37° C. for 24 h, and then the cells are treated with trypsin and resuspended in fresh medium. The untreated mouse T cells and 806-mCD28z-CAR T cells in Example 1 are respectively taken to incubate with E0771-EGFRvIII or 4T1-EGFRVIII cells pretreated with different concentrations of olaparib at a ratio of 1:3, 1:1, and 3:1; 16 hours later, the secretion of LDH in the supernatant is detected by Cytox 96 Non-Radioactive Cytotoxicity Assay, then calculating the killing toxicity of 806-mCD28z CAR T cells to tumor cells pretreated with different concentrations of olaparib. For specific detection steps and calculation methods, see the instructions of Promaga. Cytox 96 Non-Radioactive Cytotoxicity Assay (Promaga, REF: G1782); at the same time, the secretions of cytokines Granzyme B, IFN-γ, and IL-2 in the supernatant are detected by ELISA kit (Lianke Biotech Co. Ltd. CAT: 18^.22), for specific experimental procedures, referring to instructions of MouseGranzyme B, IFN-γ, IL-2 ELISA kit from Lianke Biotech Co, Ltd.
Olaparib combined treatment group: different concentrations of olaparib (1 μM, 5 μM) are added to the medium for culturing E0771-EGFRVIII or 4T1-EGFRvIII tumor cells respectively, culturing at 37° C. for 24 h, and then the cells are treated with trypsin and resuspended in fresh medium. The untreated mouse T cells and 806-mCD28z-CAR T cells in Example 1 are respectively taken to incubate with E0771-EGFRvIII or 4T1-EGFRvIII cells treated with different concentrations of olaparib at a ratio of 1:3, 1:1, and 3:1; after corresponding concentrations of olaparib (1 μM, 5 μM) are added to treat the cells continuously for 16 hours, the secretion of LDH in the supernatant is detected by Cytox 96 Non-Radioactive Cytotoxicity Assay, then calculating the killing toxicity of 806-mCD28z CAR T cells to tumor cells pretreated with different concentrations of olaparib. […]

[4] = olaparib pretreatment and combined treatment groups vs CAR-T single treatment group

O=C(c1cc(Cc2n[nH]c(=O)c3ccccc23)ccc1F)N1CCN(C(=O)C2CC2)CC1 [olaparib]
proliferation of 806-mCD28z-CAR-T cells (806-mCD28z-CAR-T cells; 1 μM olaparib): not affected
inhibition rate of proliferation of 806-mCD28z-CAR-T cells (806-mCD28z-CAR-T cells; 2.5 μM and higher concentration of olaparib, 48 hours, CCK8): ~80%
concentration that may inhibit the growth of CAR-T cells (806-mCD28z-CAR-T cells; in vitro): higher than 2.5 μM
proliferation of 806-mCD28z-CAR-T cells (806-mCD28z-CAR-T cells; olaparib): inhibited
inhibition rate of proliferation of 4T1-EGFRvIII cell line (4T1-EGFRvIII cells [1]; 1 μM and higher concentration of olaparib, 48 hours, CCK8): 30-40%
proliferation of 4T1-EGFRvIII cells (4T1-EGFRvIII cells [1]; 1 μM olaparib): inhibited
proliferation of 4T1-EGFRvIII cells (4T1-EGFRvIII cells [1]; 504 olaparib): inhibited
lethal effect on 4T1-EGFRvIII cells compared with the CAR-T single treatment group (4T1-EGFRvIII cells [2]; 5 μM olaparib combined treatment group): higher synergistic lethal effect
promotion of the killing effect of CAR-T cells on 4T1-EGFRvIII cells (4T1-EGFRvIII cells [2]; 5 μM olaparib pretreatment group, better than 5 μM combined treatment group): most significant
killing effect of CAR-T cells on 4T1-EGFRvIII cells (4T1-EGFRvIII cells [2]; olaparib 1 μM or 5 μM, pretreatment or combined treatment, vs CAR-T alone, ratio 1:3, 1:1, 3:1, 16 hours, LDH): significantly improved
level of Granzyme B in the supernatant [3, 4]: do not increase significantly
level of IL-2 in the supernatant [3, 4]: do not increase significantly
level of IFN-γ in the supernatant ([3]; olaparib pretreatment group and olaparib combined treatment group vs CAR-T single treatment group): significantly increased
